According to publication PMC12040169 (PLOS Biology, 2025):

Assay: in vitro
Settings: human, hela cells, % viability

Row | Compound | viability at 28.5 h, 10 µM [%]
1 | CCOC(=O)c1c(NC(=O)CC2Sc3ccccc3NC2=O)sc(C)c1C (stereo not drawn) [CBK263349] | 93.5
2 | CCc1c(C)nc2c(C(=O)NC(CC)COC)cnn2c1C (stereo not drawn) [CBK162133] | 97.5
3 | FC(F)(F)c1cc(-c2cc(Nc3ccc4[nH]ccc4c3)ncn2)cc(C(F)(F)F)c1 [CBK090855] | 97.9
4 | COc1ccc(C)cc1NS(=O)(=O)c1cc(I)c2occc2c1 [CBK078531] | 72.6
5 | O=C(CC1C(=O)N(c2cccc(Cl)c2)C(=O)N1CCc1cccs1)Nc1ccccc1 (stereo not drawn) [CBK267499] | 79.7
6 | O=C(O)c1cccc(N2C(=O)C3C4C=CC(CO)(O4)C3C2=O)c1 (stereo not drawn) [CBK287066] | 103
7 | Cc1ccc(N2C(=O)c3ccccc3C2=O)cc1 [CBK113243] | 95.7
8 | CC(=O)CCC(=O)N1CCN(C(=O)c2ccc(-c3ccc(S(C)(=O)=O)cc3)cn2)CC1 [CBK160484] | 105
9 | CC(=O)N1CCc2nc(NC(=O)c3cccs3)sc2C1 [CBK282680] | 74.9
10 | CN(C)c1nc2c(c(=O)[nH]c(=O)n2C)n1Cc1cccc2ccccc12 [CBK140560] | 90.1
11 | CN(C)CCN(C)c1nc(-c2ccc(C(=O)O)cc2)cn2ccnc12 [CBK037880] | 96.7
12 | CC1=CC2=NC3(CCC3)[C@@H]3C[C@@H](O)[C@@H](O)[C@@H]3N2O1 [CBK303257] | 92
13 | CCN1CCN(C(=O)CN(Cc2ccc(F)cc2)S(=O)(=O)c2ccccc2)CC1 [CBK266612] | 96.8
14 | CN(C)Cc1ccccc1-n1ncc(-c2ccc(Br)cc2F)n1 [CBK112924] | 90.9
15 | COC(=O)c1cc(C#N)c(=O)n(CC(O)COc2c(C)cccc2C)c1 (stereo not drawn) [CBK305709] | 97.2
16 | COC(=O)Nc1ccc(S(=O)(=O)N2CCCCC2C(=O)O)cc1 (stereo not drawn) [CBK058086] | 106
17 | CC(=O)C1=C(O)C(=O)N(CCN2CCNCC2)C1c1cccc([N+](=O)[O-])c1 (stereo not drawn) [CBK263320] | 101
18 | O=C(Nc1ccccc1)c1ccc(S(=O)(=O)N2CCC(C(=O)O)CC2)cc1 [CBK267806] | 89.7
19 | CC1(C)Cc2c(oc(N)c2C#N)CO1 [CBK014395] | 101
20 | CSc1nnc(N(C)S(=O)(=O)c2ccc(C)cc2)s1 [CBK155272] | 87.2
21 | O=C(Nc1cccnc1)c1cc2cc(Cl)ccc2[nH]1 [CBK107261] | 88.7
22 | CN(C)CCOc1ncccc1OCCO [CBK000655F] | 98.2

Row | Compound | viability at 28.5 h, 10 µM [%]
23 | O=C(c1ccc(COc2ccccc2Cl)o1)N1CCN(Cc2ccc3c(c2)OCO3)CC1 [CBK265750C] | 87.3
24 | Cc1nn(CC(=O)N2CCCCC2)c(=O)c2cc3ccsc3n12 [CBK284078] | 91
25 | COC(=O)CC1C(=O)NCCN1C(=S)NC(=O)c1ccc(-c2ccccc2)cc1 (stereo not drawn) [CBK268711] | 105
26 | Cn1c(=O)n(CC(=O)Nc2ccc(F)cc2)c2cccnc21 [CBK283919] | 101
27 | O=C(O)c1cccc(-n2nnnc2SCc2ccccn2)c1 [CBK266744] | 115
28 | OC(COc1ccc2c(c1)OCO2)CN1CCCN(c2nc3ccc(Cl)cc3s2)CC1 (stereo not drawn) [CBK074646] | 102
29 | COc1cc(C)c(Nc2cc(-c3cccc(N(C)C)c3)ncn2)cc1OC [CBK090780] | 43.5
30 | CCCCSc1nnc(NS(=O)(=O)c2ccc(NC(C)=O)cc2)s1 [CBK022853] | 98.5
31 | O=C(CSc1nc2[nH]ncc2c(=O)n1-c1ccccc1)Nc1nsc(-c2ccccc2)n1 [CBK266486] | 101
32 | Cc1oc(-c2ccc(Cl)cc2)cc1C(=O)CC#N [CBK047603] | 85.4
33 | CCN(Cc1cn2cccc(C(=O)OC)c2n1)CC1CCOC1 (stereo not drawn) [CBK304880] | 96.6
34 | COc1ccc(-c2noc([C@@H]3C[C@@H](O)CN3C3CCOCC3)n2)cc1 [CBK288844] | 83.7
35 | O=C(CC1C(=O)N(c2ccccc2)C(=S)N1NC(=O)c1ccccn1)Nc1ccc(Cl)cc1 (stereo not drawn) [CBK266711] | 92.2
36 | O=C(c1ccco1)N1CCN(c2cncc(-c3cc4ccccc4o3)n2)CC1 [CBK066044] | 101
37 | O=C(c1ccccc1F)N1C[C@H](c2ccsc2)[C@H]2CN(Cc3ccsc3)CC[C@H]21 [CBK285661] | 107
38 | Cc1nc(COc2ccccc2)nc(O)c1Cl [CBK057810] | 95.2
39 | O=C(c1cc[nH]c1)N1CCN(C(=O)c2ccco2)CC1 [CBK144467] | 90
40 | O=C(NC1(c2ccc(F)cc2)CCCC1)c1cnccn1 [CBK283595] | 85.1
41 | CC1CCN(CCOCC(O)CNS(=O)(=O)O)CC1 (stereo not drawn) [CBK261454N] | 124
42 | O=C(NCCc1nc2ccccc2[nH]1)c1cccc(Cl)c1 [CBK263514] | 100
43 | O=C(CSc1n[nH]c(=O)n1C1CCCCC1)NCc1ccc(N2CCCC2=O)cc1 [CBK299785] | 105
44 | CC(=O)NCC1CCC(C(NC(=O)C2CC2)c2ccccn2)CC1 (stereo not drawn) [CBK283000] | 87.5

Row | Compound | viability at 28.5 h, 10 µM [%]
45 | Oc1cc2cccnc2nc1-c1ccc(OCc2ccccc2)c(F)c1 [CBK073708] | 91.2
46 | CCCn1c(C(=O)Nc2cccnc2)cc2c(=O)n(C)c(=O)n(C)c21 [CBK287838] | 90.8
47 | CN(C)C(=O)CN1CCC2(CC1)CN(S(C)(=O)=O)c1ccccc12 [CBK126686] | 97.7
48 | O=C(O)c1[nH]c2ccccc2c1/C=N/Cc1ccccc1Cl [CBK294456] | 98.7
49 | COc1cc(/C=N/NC(=O)CSc2n[nH]c(=O)[nH]c2=O)cc(OC)c1O [CBK263527] | 92.9
50 | Cn1c(CNC(=O)c2ncoc2-c2cccs2)nc2ccccc21 [CBK283985] | 78.6
51 | O=C(NCCc1ccc(Cl)cc1)C1(Cc2ccc(-c3cccnc3)cc2)CCOCC1 [CBK285589] | 94.6
52 | Cc1cc(C2CCCCCN2C(=O)c2nn(C)cc2Cl)on1 (stereo not drawn) [CBK284843] | 105
53 | C=CCNC(=O)c1ccc(-c2cccc(N(C)C)c2)nc1NCc1cccnc1 [CBK076566] | 91.3
54 | CC(C)(C)OC(=O)N1CCC(c2nc3ccc(F)cc3cc2N)CC1 [CBK284658] | 88.9
55 | N#Cc1cn([C@@H]2O[C@H](CO)[C@H](O)C2O)c2ncnc(N)c12 (stereo partly drawn) [CBK201204] | 18
56 | Fc1ccc(OCCNCC2NCCc3c2[nH]c2ccccc32)cc1 (stereo not drawn) [CBK066972] | 92.8
57 | O=C(c1ccccc1)N1C[C@@H](c2ccsc2)[C@@H]2CN(Cc3ccc(Cl)cc3)CC[C@@H]21 [CBK285615] | 100
58 | Cc1cccc(-c2n[nH]c(=S)n2CC(=O)NCc2cn(-c3ccccc3)nc2-c2ccccc2)c1 [CBK297941] | 88.1
59 | NC(Cc1ccccc1)CN(CC1(c2ccc(Cl)cc2)CC1)C(=O)Nc1ccc2c(c1)OCO2 (stereo not drawn) [CBK002342C] | 76.1
60 | c1ccc2[nH]c(CCSCCc3nc4ccccc4[nH]3)nc2c1 [CBK023949] | 86
61 | Fc1ccc(CSc2nnnn2-c2ccc3c(c2)OCO3)cc1 [CBK293927] | 85.2
62 | O=S(=O)(NCC(Nc1cccc2ccccc12)c1ccccc1)c1ccc(Cl)cc1 (stereo not drawn) [CBK264087] | 90.3
63 | O=C(Nc1ccccc1[N+](=O)[O-])c1cc(S(=O)(=O)NCc2ccco2)ccc1Cl [CBK264557] | 94.4
64 | OCc1cc(Cl)c(Cl)c(CO)c1O [CBK269397] | 95.5
65 | CCCCSc1nc(N)cc(N2CCC(N3CCOC3=O)CC2)n1 [CBK306974] | 82.1
66 | CCOC(=O)C1CCCN(CCC(=O)Nc2ccccc2)C1 (stereo not drawn) [CBK264192C] | 91.7

Row | Compound | viability at 28.5 h, 10 µM [%]
67 | O=C(C1CCCC1)N1C[C@@H]2CCCCN(CC3CC3)[C@@H]2C1 [CBK285493] | 104
68 | Cc1ccccc1N1CCC(CNC(=O)CCn2nc(C)c(C)c2C)C1 (stereo not drawn) [CBK307465] | 87.7
69 | CC(=O)Nc1c(C)ccc(S(=O)(=O)N2CCOCC2)c1C [CBK034327] | 98.6
70 | c1coc(CNc2c(-c3cccs3)nc3cnccn23)c1 [CBK283540] | 93.2
71 | Cc1cc(C)c2c(c1)C1(C(=O)N2)C(C#N)=C(N)Oc2[nH]nc(-c3ccccc3)c21 (stereo not drawn) [CBK267367] | 100
72 | CCC(=O)N1CCCc2cc(C(O)CN3CCN(c4ccc(F)cc4)CC3)ccc21 (stereo not drawn) [CBK286480] | 95.3
73 | COc1ccc(CCNc2oc(COc3ccccc3)nc2C#N)cc1 [CBK074469] | 90.2
74 | CCCCC(=O)N1CCC2(CC1)CC(=O)c1ccc(OCc3ccccc3)c(C)c1O2 [CBK156493] | 104
75 | CCOC(=O)c1cnc(SCC(=O)N2c3ccccc3SC3C=CC=CC32)nc1N (stereo not drawn) [CBK269029] | 99.6
76 | COCCN1C(=O)c2ccc(C(=O)Nc3cc(C(=O)O)cc(C(=O)O)c3)cc2C1=O [CBK268444] | 96.5
77 | O=C1/C(=C/NNc2nc3ccccc3s2)Sc2ccccc21 [CBK261627] | 96.4
78 | COc1cc(C(C)=O)ccc1OCCCN1CCC(O)(C(=O)c2ccc(F)cc2)CC1 [CBK025271C] | 85.8
79 | CCc1nc(CN(C(C)=O)C2CCN(CCc3ccccn3)C2)no1 (stereo not drawn) [CBK305372] | 96.7
80 | COc1cccc(C(O)CN2CCC3(CC2)CC(O)c2cc(Cl)c(C)cc2O3)c1 (stereo not drawn) [CBK286342] | 99.3
81 | COCCCN1C(=O)C(O)=C(C(=O)c2ccc(Cl)cc2)C1c1cccc(O)c1 (stereo not drawn) [CBK264892] | 105
82 | Cc1nc(CCNC(=O)C2CCN(C(=O)c3ccc(F)cc3)CC2)cs1 [CBK304378] | 105
83 | Cc1nnc(Sc2nc3ccccc3nc2N2CCCC2)s1 [CBK093751] | 89.1
84 | COc1ncccc1C(=O)NCC(CC(=O)O)c1ccc(Cl)cc1 (stereo not drawn) [CBK287264] | 92.1
85 | O=C(NCc1cccs1)NC1CCCc2c1cnn2CCO (stereo not drawn) [CBK305658] | 100

Same assay, conditions: human, hela cells, % viability, bulk resorufin, single well

Row | Compound | viability at 28.5 h, 10 µM [%]
86 | O=C1NC(=S)N(c2ccccc2F)C(=O)/C1=C/NCc1ccco1 [CBK265126] | 86.6
87 | COc1cccc2c1OC1(CCN(C(=O)c3cccn3C)CC1)OC2 [CBK061166] | 85.1
